Here are results for 19 compounds from ChEMBL document CHEMBL1131068, “Synthesis and pharmacological evaluation of N,N'-diarylguanidines as potent sodium channel blockers and anticonvulsant agents” (J Med Chem, 1998).

Bounds are passed on as bounds.

What is called inhibition in vivo is the relative decrease from the control value, in per cent. Usually IC50 stands for the point on the concentration scale where inhibition reaches its midpoint. A word on the logD: it is the decadic logarithm of the distribution of all forms, ionised or not, between an organic phase and buffer at a given pH. The low end stands for a more hydrophilic compound, the high end for a more lipophilic compound.

Data set [1] is described as follows: Prevention of seizures induced by loud -high frequency sounds in the DBA/2 mouse after 20 mg/kg ip administration. Format: functional. The note with it: route intraperitoneal.
Data set [2] addresses Sodium channel protein type 2 subunit alpha (Rattus norvegicus, UniProt P04775). Kind of data set: Sodium channel block, determined by % block of [14C]guanidinium flux in CHO line expressing rat type IIA sodium channels derived from rat brain.
Data set [3] can be described thus: physchem. As to conditions: octanol/15 mM HEPES/135 mM NaCl, pH 7.4.
Description: Partition coefficient (logD7.4) (octanol/15 mM HEPES/135 mM NaCl at pH 7.4)
The target of data set [4] is Glutamate NMDA receptor. Kind of data set: Displacement of [3H]MK-801 from rat brain membrane N-methyl-D-aspartate glutamate receptor. (Displacement assays read how much labelled ligand stays bound in the presence of the test substance.)
Data set [5] deals with Mus musculus. Briefly: The in vivo inhibitory activity of compound was measured as effectiveness in preventing seizures induced by loud -high frequency sounds in the DBA/2 mouse after 25 mg/kg ip administration. In kind it is functional. The note with it: route intraperitoneal.

Sequence of Sodium channel protein type 2 subunit alpha (P04775 whole entry): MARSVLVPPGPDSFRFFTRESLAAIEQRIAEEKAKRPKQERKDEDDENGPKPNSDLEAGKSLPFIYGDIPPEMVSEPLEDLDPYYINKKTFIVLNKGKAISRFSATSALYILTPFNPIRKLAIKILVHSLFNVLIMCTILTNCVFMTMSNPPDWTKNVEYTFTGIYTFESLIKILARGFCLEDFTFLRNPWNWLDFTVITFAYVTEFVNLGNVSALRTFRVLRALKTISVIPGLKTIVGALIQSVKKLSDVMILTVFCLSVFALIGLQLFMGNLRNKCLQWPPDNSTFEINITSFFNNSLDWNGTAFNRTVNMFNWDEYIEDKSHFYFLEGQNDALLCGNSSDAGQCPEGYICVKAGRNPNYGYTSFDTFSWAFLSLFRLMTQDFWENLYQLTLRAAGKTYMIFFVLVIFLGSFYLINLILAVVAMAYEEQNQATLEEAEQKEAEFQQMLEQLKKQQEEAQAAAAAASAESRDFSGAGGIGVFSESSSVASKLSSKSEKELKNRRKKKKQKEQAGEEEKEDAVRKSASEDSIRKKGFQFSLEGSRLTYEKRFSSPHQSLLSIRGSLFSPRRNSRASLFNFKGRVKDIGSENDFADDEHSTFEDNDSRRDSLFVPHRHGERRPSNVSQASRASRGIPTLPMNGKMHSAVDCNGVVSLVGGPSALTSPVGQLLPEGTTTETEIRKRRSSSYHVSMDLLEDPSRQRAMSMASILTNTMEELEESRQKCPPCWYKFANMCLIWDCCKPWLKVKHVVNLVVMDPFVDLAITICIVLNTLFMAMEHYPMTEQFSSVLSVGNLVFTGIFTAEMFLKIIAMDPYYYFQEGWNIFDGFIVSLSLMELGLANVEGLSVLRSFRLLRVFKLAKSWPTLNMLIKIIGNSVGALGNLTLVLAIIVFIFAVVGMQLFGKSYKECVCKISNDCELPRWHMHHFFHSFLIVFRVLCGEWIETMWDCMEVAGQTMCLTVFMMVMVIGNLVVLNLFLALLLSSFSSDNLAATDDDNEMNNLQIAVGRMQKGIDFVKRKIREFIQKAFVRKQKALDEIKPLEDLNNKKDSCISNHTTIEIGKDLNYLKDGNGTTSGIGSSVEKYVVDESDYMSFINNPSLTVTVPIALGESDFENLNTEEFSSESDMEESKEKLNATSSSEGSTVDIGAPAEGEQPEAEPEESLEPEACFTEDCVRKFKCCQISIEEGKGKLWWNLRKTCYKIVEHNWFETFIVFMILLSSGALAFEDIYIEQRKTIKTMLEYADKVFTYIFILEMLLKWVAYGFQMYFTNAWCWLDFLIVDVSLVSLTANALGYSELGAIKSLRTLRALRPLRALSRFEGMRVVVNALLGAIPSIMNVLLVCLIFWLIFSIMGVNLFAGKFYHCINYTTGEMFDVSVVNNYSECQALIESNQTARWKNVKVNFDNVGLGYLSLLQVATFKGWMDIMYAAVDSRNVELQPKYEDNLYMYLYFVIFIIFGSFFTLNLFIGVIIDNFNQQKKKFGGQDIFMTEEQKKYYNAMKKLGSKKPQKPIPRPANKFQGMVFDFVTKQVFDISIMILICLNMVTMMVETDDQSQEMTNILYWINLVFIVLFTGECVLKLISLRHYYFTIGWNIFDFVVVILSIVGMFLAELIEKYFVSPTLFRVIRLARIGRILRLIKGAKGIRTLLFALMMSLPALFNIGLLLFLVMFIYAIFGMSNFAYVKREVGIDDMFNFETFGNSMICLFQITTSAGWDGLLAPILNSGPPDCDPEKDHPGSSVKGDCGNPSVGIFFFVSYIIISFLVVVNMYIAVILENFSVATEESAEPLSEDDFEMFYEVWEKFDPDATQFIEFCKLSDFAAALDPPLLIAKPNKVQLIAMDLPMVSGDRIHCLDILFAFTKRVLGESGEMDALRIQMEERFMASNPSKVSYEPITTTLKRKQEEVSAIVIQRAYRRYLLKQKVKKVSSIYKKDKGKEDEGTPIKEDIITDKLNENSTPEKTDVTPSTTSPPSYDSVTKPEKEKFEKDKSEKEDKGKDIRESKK

Compound `CCC(C)c1ccc(NC(N)=Nc2ccc3c4c(cccc24)CC3)cc1` (stereo not given) registered an inhibition in vivo at 20 mg/kg in data set [1] of 33%. Also, the midpoint of inhibition in data set [2], the IC50, lay at 680 nM. The compound further gave a pH-dependent lipophilicity (logD) in data set [3] of 3.31.

As for `CC(C)c1ccc(NC(=N)Nc2ccc(C(C)C)cc2)cc1`, the inhibition in vivo at 20 mg/kg in data set [1] worked out at 85%. For the same compound, the IC50 in data set [4] stood at 17900 nM; in data set [2], 460 nM. Moreover, in data set [3], the logD amounted to 2.72.

With `Cc1ccc(N=C(N)Nc2ccc(C)cc2)cc1`, the inhibition in vivo at 20 mg/kg in data set [1] amounted to 43%. The IC50 in data set [4] came out at 10200 nM; in data set [2], 9210 nM. Moreover, in data set [3], the logD stood at 0.7.

As for `Nc1nc2ccc(OC(F)(F)F)cc2s1` [RILUZOLE], the inhibition in vivo at 20 mg/kg in data set [1] worked out at 92%.

The compound `CN1CCN(c2ncc(-c3cc(Cl)cc(Cl)c3Cl)c(N)n2)CC1` [SIPATRIGINE] registered an inhibition in vivo at 20 mg/kg in data set [1] of 66%. In data set [3], the logD turned out to be 3.39.

For `CCCCc1ccc(NC(N)=Nc2ccc(OCc3ccccc3)cc2)cc1`, the inhibition in vivo at 20 mg/kg in data set [1] turned out to be 40%. Also, the IC50 was 4010 nM in data set [4] and 140 nM in data set [2].

Turning to `CC(C)(C)c1ccc(NC(=N)Nc2ccc(OCc3ccccc3)cc2)cc1`, testing at 20 mg/kg in data set [1] gave an inhibition in vivo of 27%. The half-maximal inhibitory concentration (IC50) in data set [4] stood at 2190 nM; in data set [2] it was 110 nM. The pH-dependent lipophilicity (logD) in data set [3] came to 3.46.

`CC(C)(C)c1ccc(NC(=N)Nc2ccc(C(C)(C)C)cc2)cc1` displayed an inhibition in vivo at 20 mg/kg in data set [1] of 60%. The results for the IC50 in data set [4] and in data set [2] were more than 7700 nM and 1540 nM, respectively. For the same compound, in data set [3], the logD was 3.65.

For `CCCCCCc1ccc(N=C(N)Nc2ccc(CCCCCC)cc2)cc1`, in data set [1], the inhibition in vivo at 20 mg/kg was found to be 79%. In addition, the IC50 in data set [4] was determined as 7790 nM; in data set [2], 830 nM. The logD in data set [3] is 6.07.

Take `CCCCOc1ccc(N=C(N)Nc2ccc(OCCCC)cc2)cc1`: testing at 20 mg/kg in data set [1] gave an inhibition in vivo of 52%. Further, the concentration for half-maximal inhibition (IC50) in data set [4] is 3480 nM; in data set [2], 190 nM. This compound came in with a logD in data set [3] of 3.52.

For `CCCCc1ccc(N=C(N)Nc2ccc(CCCC)cc2)cc1`, in data set [5], the inhibition in vivo at 25 mg/kg was 82%. Also, the figures for the IC50 in data set [4] and in data set [2] were 3320 nM and 130 nM, respectively. Also, the log distribution coefficient (logD) in data set [3] is 4.1.

As for `CCc1ccc(NC(=N)Nc2ccc(CC)cc2)cc1`, the inhibition in vivo at 20 mg/kg in data set [1] amounted to 100%. Moreover, the half-inhibitory concentration (IC50) in data set [4] turned out to be 7910 nM; in data set [2] it was 1390 nM. Besides, the log distribution coefficient (logD) in data set [3] was 1.7.

`CCC(C)c1ccc(NC(=N)Nc2ccc(C(C)CC)cc2)cc1` (stereo not given): in data set [1], the inhibition in vivo at 20 mg/kg stood at 69%. Also, the IC50 in data set [4] stood at 10100 nM. Besides, the logD in data set [3] is 3.94.

In data set [2], `NC(=Nc1ccc(-c2ccccc2)cc1)Nc1ccc(-c2ccccc2)cc1` gave an IC50 of 850 nM. This compound also gave a pH-dependent lipophilicity (logD) in data set [3] of 3.13.

`COc1ccc(/N=C(\N)Nc2ccc3c4c(cccc24)CC3)c2ccccc12` returned an inhibition in vivo at 20 mg/kg in data set [1] of 50%. Further, the IC50 in data set [4] was 2490 nM. Further, in data set [3], the logD worked out at 2.7.

`NC(=Nc1ccc(Sc2ccccc2)cc1)Nc1ccc(Sc2ccccc2)cc1` yielded a concentration for half-maximal inhibition (IC50) in data set [2] of 840 nM. The compound also showed a logD in data set [3] of 4.18.

For `CCCCOc1ccc(NC(=N)Nc2ccc(CCCCO)cc2)cc1`, the inhibition in vivo at 20 mg/kg in data set [1] was 11%. Also, in data set [2], it took 1780 nM to reach half-maximal inhibition (IC50). The compound further came in with a logD in data set [3] of 1.72.

In turn, `NC(=Nc1ccc(Oc2ccccc2)cc1)Nc1ccc(Oc2ccccc2)cc1` returned an inhibition in vivo at 20 mg/kg in data set [1] of 21%. Moreover, in data set [2], the 50% inhibitory concentration (IC50) is 430 nM. In data set [3], this compound registered a logD of 3.55.

With `NC(=Nc1ccc(CCCCO)cc1)Nc1ccc(CCCCO)cc1`, the inhibition in vivo at 20 mg/kg in data set [1] was 0%. This compound also returned a concentration for half-maximal inhibition (IC50) in data set [2] of 8190 nM. In addition, the logD in data set [3] turned out to be 0.047.
